Results reported in patent US12274830B2, “Nitric oxide inhalation therapy for infants with bronchiolitis” (BEYOND AIR LTD, priority 2015, dated 2025).
Entries after “also recorded” stand apart in the source; their conditions may differ.

What was measured:
[1] = test system: infants with acute bronchiolitis; experiment: Efficacy (LOS, time to SpO2 >=92%, time to clinical score <=5) of intermittent inhalations of 160 ppm NO in infants with acute bronchiolitis; assay type: in vivo, human
Description: The study was a randomized, prospective, single center, double blind study of 2-11 month old hospitalized infants with acute bronchiolitis (FIG. 1).
Subjects were screened within 4 hours of admission and randomized (1:1) to receive intermittent inhalations of 160 ppm NO along with standard treatment (NO group) or intermittent inhalations of 02/air mixture and standard treatment (control group), for a maximum of 25 inhalations.
Secondary Outcome: Efficacy parameters: LOS calculated in hours, starting from first inhalation until: 1) Oxygen saturation (SpO2) ≥92% in room-air; 2) Clinical score ≤5 (15, 16) and; 3) blinded physician decision of “ready for discharge”.
The secondary outcome were efficacy measures, including LOS, time to achieve ≥92% SaO2, and time to achieve a clinical score of ≤5. LOS in hours was defined as the time between first treatment until the time the infant was “ready for discharge”, defined as 1. Room air saturation of ≥92%; 2. Clinical severity symptom score (Table E1) of ≤5; 3. A clinical decision made by a blinded pediatrician.
A severity symptom score, was used to determine the severity of each infant (Table E1). The score was comprised of four components: Respiratory rate, use of accessory muscles, wheezes and crackles on auscultation, and % room-air oxygen saturation (SpO2). Each component is given 0 to 3 points, with a total possible score of 12. Infants with a score of <6 were determined as mild and were not included in the study, while infants with a score of >10 were determined as very severe and were also excluded.
Each patient was given 5 inhalations a day of NO (treatment group) or oxygen (control group), along with the standard supportive treatment, for a maximum of 25 inhalations (based on phase I safety data). Each participant was examined and evaluated using the severity symptom score by a blinded pediatricians every […] (9 am and 3 pm). When the room-air SpO2 reached 92%, and the score was ≤5, and the patient was assessed as “ready for discharge”, the treatment was discontinued.
Post-hoc subgroup analyses of subjects with a LOS ≤24 hours and >24 hours were also conducted for the key post-hoc secondary endpoints, for the following reasons: based on preclinical studies, the anti-microbial treatment effect of NO is expected to take approximately 2.5 hours of exposure (i.e., 24 hours treatment). A third of the subjects were discharged after <24 hours in hospital. A longer LOS is expected to correlate with a higher disease severity, and therefore any treatment effect should be more evident in the subgroup LOS >24 hours.
LOS was calculated in hours from the first inhalation treatment to “ready for discharge” defined as physician decision to discharge.
Time to achieve room-air SpO2 of ≥92% (improvement in oxygenation) leading to discharge was calculated from first treatment to the first time of room-air SpO2 of ≥92% sustained until discharge. Time to clinical score of ≤5 was calculated from the first inhalation to the first time the subject reached a clinical score of ≤5.
The following statistical tests were used in the analysis of the data presented in this study: 1. The Paired T-Test was applied for testing the statistical significance of the changes from baseline for quantitative variables within each study group; 2. The two-sample T-test or Non-parametric Wilcoxon Rank Sum test or median tests were used as appropriate for analyzing differences between the study groups in quantitative parameters; 3. The Chi-square test was applied for testing the statistical significance of the differences in frequency of categorical variables between the study groups; 4. Survival analysis using a Kaplan-Meier survival function curve was applied for testing the statistical significance of the difference between the study groups in the following endpoints: LOS, from first inhalation to ready to discharge, time to achieve 92% saturation leading to discharge, and time to achieve clinical score ≤5. […]

[2] = test system: Serracia sp.; settings: 200 ppm gNO; cited from earlier work
[3] = test system: S. aureus (Clinical); settings: 200 ppm gNO; cited from earlier work
[4] = test system: influenza virions or infected cell (MDCK); settings: intermittent (30 minutes every 4 hours) 160 ppm exogenous gaseous NO; MDCK cell model; cited from earlier work
[5] = test system: healthy individuals; settings: 160 ppm NO for 30 minutes, 5 times daily, 5 consecutive days; cited from earlier work

## [N]=O [NO, nitric oxide]
[1]; ITT (N=42), NO group, P=0.517 vs control
  Time to first 92% O2 saturation sustained to discharge: 35.50 ± 33.73 h
[1]; ITT (N=43), NO group, P=0.621 vs control
  Mean time to reach clinical score of ≤5: 32.83 ± 30.61 h
[1]; ITT including the 16 infants discharged within <24 hours, P=0.65 vs control
  Median LOS: 40 h
[1]; ITT, 43 subjects, NO group, P=0.86 vs control
  Length of stay (LOS), mean±SD: 43.3 ± 32.95 h
[1]; Kaplan Meier, PP, LOS >24 hours, 95% CI=0.139, 0.921, P=0.028
  Hazard ratio (HR), time to first sustained 92% O2 saturation: 0.358
[1]; Kaplan-Meier, ITT, LOS >24 hours, 95% CI: 0.161, 0.949, log rank P=0.033
  Hazard ratio (HR), time to clinical score ≤5: 0.391
[1]; post-hoc ITT, LOS >24 hours subgroup, P=0.014 vs control
  Median LOS, post-hoc subgroup: 41.92 h
[1]; post-hoc, subgroup LOS >24 hours
  Clinical benefit of NO versus standard treatment (LOS, time to SpO2 ≥92%, time to clinical score ≤5): statistically significant clinical benefits; also recorded: statistically significant in favor of the NO group; also recorded: statistically significant treatment benefit
[2]
  +2.5 Log10: 4.9 hours
  LD100: 6 h
  Latent Period: 4 h
[3]
  +2.5 Log10: 3.7 hours
  LD100: 4 h
  Latent Period: 3 h
[4]
  Effect on influenza viral replication and infectivity: reduced not just viral replication, but also its infectivity
[5]
  Safety and tolerability in healthy individuals: safe and well tolerated
